# In patent publication US20040081688A1, “Amphiphilic lipid nanoparticles for peptide and/or protein incorporation” (priority 2000, published 2004):
# Tests used:
# [1] = Antide semi-quantitative solubility evaluation (maximum loading) in lipids; format: physicochemical; details: Antide maximum loading in the lipid named in the row
# [2] = Partition coefficient octanol/water; format: physicochemical; details: 24 hours at room temperature, ratio of drug concentration in organic and water phase by RP-HPLC
# Experimental: Partition coefficient: it was determined using octanol as organic phase and water as hydrophilic phase. The two phases were first saturated with each other for 24 hours at room temperature. Antide was then dissolved in the water phase at a concentration well below saturation. An equal volume of organic phase was subsequently added to the water phase and the mixture was kept under stirring for 24 hours at room temperature. Antide concentration in the two phases was determined by RP-HPLC and the partition coefficient was obtained from the ratio between the drug concentration in organic and water phase.
# The resulting octanol/water coefficient was 8.56·10^−2
Antide loading (%) [1],octanol/water coefficient [2],Compound
3.7 × 10^−2 - not soluble %,,CCCCCCCCCCCCCCCCO [Cetil alcohol]
,8.56·10^−2,"N-Ac-D-2-Nal, D-pClPhe, D-3-Pal, Ser, NicLys, D-NicLys, Leu, Ilys, Pro, D-Ala, NH2 [Antide]"
